# Results taken from ChEMBL document CHEMBL3885861, “Open TG-GATES”.
# Species on record: Rattus norvegicus
# Experiment: Open TG-GATES - Regimen: Single
# Format: toxicity, organism-based, Sprague-Dawley
# Set-up: regimen Single, gender Male, age 6 weeks
# Settings: in vivo, po, 0 mg/kg, route gavage, dose level Control; for APTT / Bas / Eos / Fbg / Hb / Ht / Lym / MCHC / MCV / Mono / PT / Plat / RBC / Ret / WBC: tissue Blood; for KIDNEY_L / KIDNEY_R / KIDNEY_TOTAL: tissue Kidney; for LIVER: tissue Liver; for ALP / ALT / AST / BUN / CRE / DBIL / GLC / K / LDH / Na / PL / RALB / TBIL / TC / TG / TP / gamma-GTP: tissue Plasma
structure (smiles),measurement,setting,value
O=C1NC(=O)C(c2ccccc2)(c2ccccc2)N1 [PHENYTOIN],TERMINAL_BW,3 h,209.3 g
same,APTT,3 h,16.8 s
same,Bas,3 h,0.4%
same,Eos,3 h,0.8%
same,Fbg,3 h,267 mg/dL
same,Hb,3 h,13.4 g/dL
same,Ht,3 h,40.2%
same,Lym,3 h,78.6%
same,MCHC,3 h,33.3%
same,MCV,3 h,62.2 fL
same,Mono,3 h,3%
same,PT,3 h,13.9 s
same,Plat,3 h,116.9 x10_4/uL
same,RBC,3 h,646.8 x10_4/ul
same,Ret,3 h,8.3%
same,WBC,3 h,81.2 x10_2/uL
same,KIDNEY_L,3 h,0.9 g
same,KIDNEY_R,3 h,0.9 g
same,KIDNEY_TOTAL,3 h,1.9 g
same,LIVER,3 h,9.6 g
same,ALP,3 h,1709.4 IU/L
same,ALT,3 h,37 IU/L
same,AST,3 h,75.6 IU/L
same,BUN,3 h,9.8 mg/dL
same,CRE,3 h,0.2 mg/dL
same,DBIL,3 h,0.018 mg/dL
same,GLC,3 h,177.4 mg/dL
same,K,3 h,4.1 meq/L
same,LDH,3 h,127.8 IU/L
same,Na,3 h,141.6 meq/L
same,PL,3 h,145.2 mg/dL
same,RALB,3 h,2.5 g/dL
same,TBIL,3 h,0.056 mg/dL
same,TC,3 h,75.8 mg/dL
same,TG,3 h,61.4 mg/dL
same,TP,3 h,5.4 g/dL
same,gamma-GTP,3 h,1.2 IU/L
same,TERMINAL_BW,6 h,207.9 g
same,APTT,6 h,16.8 s
same,Bas,6 h,0.6%
same,Eos,6 h,0.8%
same,Fbg,6 h,297.4 mg/dL
same,Hb,6 h,13.3 g/dL
same,Ht,6 h,39.4%
same,Lym,6 h,79.4%
same,MCHC,6 h,33.6%
same,MCV,6 h,61.5 fL
same,Mono,6 h,3%
same,PT,6 h,14.1 s
same,Plat,6 h,121.6 x10_4/uL
same,RBC,6 h,641.4 x10_4/ul
same,Ret,6 h,7.5%
same,WBC,6 h,97.9 x10_2/uL
same,KIDNEY_L,6 h,0.9 g
same,KIDNEY_R,6 h,0.9 g
same,KIDNEY_TOTAL,6 h,1.8 g
same,LIVER,6 h,8.5 g
same,ALP,6 h,1520.6 IU/L
same,ALT,6 h,34.4 IU/L
same,AST,6 h,67.6 IU/L
same,BUN,6 h,8.6 mg/dL
same,CRE,6 h,0.2 mg/dL
same,DBIL,6 h,0.018 mg/dL
same,GLC,6 h,184.2 mg/dL
same,K,6 h,4.3 meq/L
same,LDH,6 h,96.2 IU/L
same,Na,6 h,142.2 meq/L
same,PL,6 h,139.6 mg/dL
same,RALB,6 h,2.5 g/dL
same,TBIL,6 h,0.05 mg/dL
same,TC,6 h,77.8 mg/dL
same,TG,6 h,44.2 mg/dL
same,TP,6 h,5.4 g/dL
same,gamma-GTP,6 h,1.4 IU/L
same,TERMINAL_BW,9 h,205.9 g
same,APTT,9 h,15.5 s
same,Bas,9 h,0.6%
same,Eos,9 h,0.8%
same,Fbg,9 h,295.6 mg/dL
same,Hb,9 h,13.5 g/dL
same,Ht,9 h,40.5%
same,Lym,9 h,76.2%
same,MCHC,9 h,33.4%
same,MCV,9 h,61.1 fL
same,Mono,9 h,2.6%
same,PT,9 h,13.8 s
same,Plat,9 h,126 x10_4/uL
same,RBC,9 h,663.4 x10_4/ul
same,Ret,9 h,7.6%
same,WBC,9 h,79.7 x10_2/uL
same,KIDNEY_L,9 h,0.9 g
same,KIDNEY_R,9 h,0.9 g
same,KIDNEY_TOTAL,9 h,1.8 g
same,LIVER,9 h,8.7 g
same,ALP,9 h,1437.2 IU/L
same,ALT,9 h,29.8 IU/L
same,AST,9 h,68.8 IU/L
same,BUN,9 h,9.8 mg/dL
same,CRE,9 h,0.2 mg/dL
same,DBIL,9 h,0.014 mg/dL
same,GLC,9 h,177.4 mg/dL
same,K,9 h,4.2 meq/L
same,LDH,9 h,93.4 IU/L
same,Na,9 h,142.4 meq/L
same,PL,9 h,131.6 mg/dL
same,RALB,9 h,2.5 g/dL
same,TBIL,9 h,0.052 mg/dL
same,TC,9 h,72.4 mg/dL
same,TG,9 h,40 mg/dL
same,TP,9 h,5.5 g/dL
same,gamma-GTP,9 h,1.6 IU/L
same,TERMINAL_BW,24 h,224.3 g
same,APTT,24 h,17.7 s
same,Bas,24 h,0.4%
same,Eos,24 h,1%
same,Fbg,24 h,273.4 mg/dL
same,Hb,24 h,13.2 g/dL
same,Ht,24 h,39.1%
same,Lym,24 h,79.8%
same,MCHC,24 h,33.7%
same,MCV,24 h,62.6 fL
same,Mono,24 h,2.2%
same,PT,24 h,14.4 s
same,Plat,24 h,121.9 x10_4/uL
same,RBC,24 h,625.6 x10_4/ul
same,Ret,24 h,7.8%
same,WBC,24 h,108.2 x10_2/uL
same,KIDNEY_L,24 h,1 g
same,KIDNEY_R,24 h,1 g
same,KIDNEY_TOTAL,24 h,2.1 g
same,LIVER,24 h,10.6 g
same,ALP,24 h,1864.2 IU/L
same,ALT,24 h,42.4 IU/L
same,AST,24 h,75.2 IU/L
same,BUN,24 h,14.8 mg/dL
same,CRE,24 h,0.2 mg/dL
same,DBIL,24 h,0.024 mg/dL
same,GLC,24 h,187.6 mg/dL
same,K,24 h,4 meq/L
same,LDH,24 h,95.6 IU/L
same,Na,24 h,142.6 meq/L
same,PL,24 h,152 mg/dL
same,RALB,24 h,2.6 g/dL
same,TBIL,24 h,0.042 mg/dL
same,TC,24 h,74.8 mg/dL
same,TG,24 h,100.2 mg/dL
